Data: US20230219906A1, “MACROCYCLIC-2-AMINO-3-FLUORO-BUT-3-ENAMIDES AS INHIBITORS OF MCL-1” (Janssen Pharmaceutica NV, priority 2020, published 2023)
Like-named read-outs stand apart in the source and are kept apart here.

Columns and labels:
[1] = biological target: Myeloid Cell Leukemia 1(Mcl-1) (Homo sapiens, UniProt Q07820); assay: Terbium labeled Mcl-1 HTRF binding assay with Cy5-labeled BIM BH3 peptide; conditions: displacement of Cy5 Bim BH3 peptide; Ki=IC50/(1+[L]/Kd), [L]=8 nM, Kd=10 nM; 60 minutes at room temperature; read-out: Tb-MCL1 Ki
Sequence of Myeloid Cell Leukemia 1(Mcl-1) (Q07820 whole entry): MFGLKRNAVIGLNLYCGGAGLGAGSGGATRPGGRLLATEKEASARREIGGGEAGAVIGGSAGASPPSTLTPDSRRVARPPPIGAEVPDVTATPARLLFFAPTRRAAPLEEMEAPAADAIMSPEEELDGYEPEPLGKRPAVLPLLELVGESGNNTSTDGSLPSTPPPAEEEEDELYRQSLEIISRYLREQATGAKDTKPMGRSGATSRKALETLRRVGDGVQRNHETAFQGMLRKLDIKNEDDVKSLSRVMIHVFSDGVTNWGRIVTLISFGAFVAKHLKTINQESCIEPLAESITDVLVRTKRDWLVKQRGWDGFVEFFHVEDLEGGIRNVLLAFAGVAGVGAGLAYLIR
Method: Terbium labeled Myeloid Cell Leukemia 1(Mcl-1) homogeneous time-resolved fluorescence (HTRF) binding assay utilizing the BIM BH3 peptide (H2N—(C/Cy5Mal) WIAQELRRIGDEFN-OH) as the binding partner for Mcl-1.
This assay evaluated inhibition of the BH3 domain: Mcl-1 interaction by measuring the displacement of Cy5-labeled BIM BH3 peptide (H2N—(C/Cy5Mal) WIAQELRRIGDEFN-OH) in the HTRF assay format.
The following assay and stock buffers were prepared for use in the assay: (a) Stock buffer: 10 mM Tris-HCl, pH=7.5+150 mM NaCl, filtered, sterilized, and stored at 4° C.; and (b) 1X assay buffer, where the following ingredients were added fresh to stock buffer: 2 mM dithiothreitol (DTT), 0.0025% Tween-20, 0.1 mg/mL bovine serum albumin (BSA). The 1X Tb-Mcl-1+Cy5 Bim peptide solution was prepared by diluting the protein stock solution using the 1X assay buffer (b) to 25 pM Tb-Mcl-1 and 8 nM Cy5 Bim peptide.
Using the Acoustic ECHO, 100 nL of 100x test compound(s) were dispensed into individual wells of a white 384-well Perkin Elmer Proxiplate, for a final compound concentration of 1× and final DMSO concentration of 1%. Inhibitor control and neutral control (NC, 100 nL of 100% DMSO) were stamped into columns 23 and 24 of assay plate, respectively. Into each well of the plate was then dispensed 10 μL of the 1X Tb-Mcl-1+Cy5 Bim peptide solution. The plate was centrifuged with a cover plate at 1000 rpm for 1 minute, then incubated for 60 minutes at room temperature with plates covered.
The TR-FRET signal was read on an BMG PHERAStar FSX MicroPlate Reader at room temperature using the HTRF optic module (HTRF: excitation: 337 nm, light source: laser, emission A: 665 nm, emission B: 620 nm, integration start: 60 μs, integration time: […]).
The BMG PHERAStar FSX MicroPlate Reader was used to measure fluorescence intensity at two emission wavelengths—665 nm and 620 nm—and report relative fluorescence units (RFU) for both emissions, as well as a ratio of the emissions (665 nm/620 nm)*10,000. The RFU values were normalized to percent inhibition as follows:
% inhibition=(((NC−IC)−(compound−IC))/(NC−IC))*100
where IC (inhibitor control, low signal)= mean signal of 1X Tb-MCl-1+Cy5 Bim peptide+inhibitor control or 100% inhibition of Mcl-1; NC (neutral control, high signal)= mean signal 1X Tb-MCl-1+Cy5 Bim peptide with DMSO only or 0% inhibition An 11-point dose response curve was generated to determine IC50 values (using GenData) based on the following equation:
Y=Bottom+(Top−Bottom)/(1+10∧((log IC50−X)*HillSlope))
where Y=% inhibition in the presence of X inhibitor concentration; Top=100% inhibition derived from the IC (mean signal of Mcl-1+inhibitor control); Bottom=0% inhibition derived from the NC (mean signal of Mcl-1+DMSO); Hillslope=Hill coefficient; and IC50=concentration of compound with 50% inhibition in relation to top/neutral control (NC).
In this assay [L]=8 nM and Kd=10 nM

[2] = system: MOLP-8 human multiple myeloma cell line; assay: Caspase-Glo 3/7 apoptosis induction assay in MOLP-8 cells; assay type: cell-based; conditions: caspase-3/7 activity, 2 hours at 37° C., averaged over all runs on all batches, read-out: MOLP8 AC50
Description: MCL-1 is a regulator of apoptosis and is highly over-expressed in tumor cells that escape cell death. The assay evaluates the cellular potency of small-molecule compounds targeting regulators of the apoptosis pathway, primarily MCL-1, Bfl-1, Bcl-2, and other proteins of the Bcl-2 family. Protein-protein inhibitors disrupting the interaction of anti-apoptotic regulators with BH3-domain proteins initiate apoptosis.
The Caspase-Glo® 3/7 Assay is a luminescent assay that measures caspase-3 and −7 activities in purified enzyme preparations or cultures of adherent or suspension cells. The assay provides a proluminescent caspase-3/7 substrate, which contains the tetrapeptide sequence DEVD. This substrate is cleaved to release aminoluciferin, a substrate of luciferase used in the production of light. Addition of the single Caspase-Glo® 3/7 Reagent in an “add-mix-measure” format results in cell lysis, followed by caspase cleavage of the substrate and generation of a “glow-type” luminescent signal.
This assay uses the MOLP-8 human multiple myeloma cell line, which is sensitive to MCL-1 inhibition.
Cell cultures were maintained between 0.2 and 2.0×10^6 cells/mL. The cells were harvested by collection in 50 mL conical tubes. The cells were then pelleted at 500 g for 5 mins before removing supernatant and resuspension in fresh pre-warmed culture medium. The cells were counted and diluted as needed.
The assay reagent was prepared by transferring the buffer solution to the substrate vial and mixing. The solution may be stored for up to 1 week at 4° C. with negligible loss of signal.
Compounds were delivered in assay-ready plates (Proxiplate) and stored at −20° C. Assays always include 1 reference compound plate containing reference compounds. The plates were spotted with 40 nL of compounds (0.5% DMSO final in cells; serial dilution; […] highest conc. 1/3 dilution, 10 doses, duplicates). The compounds were used at room temperature and 4 μL of pre-warmed media was added to all wells except column 2 and 23. The negative control was prepared by adding 1% DMSO in media. The positive control was prepared by adding the appropriate positive control compound in final concentration of […] in media. The plate was prepared by adding 4 μL negative control to column 23, 4 μL positive control to column 2 and 4 μL cell suspension to all wells in the plate. The plate with cells was then incubated at 37° C. for 2 hours. The assay signal reagent is the Caspase-Glo solution described above, and 8 μL was added to all wells. The plates were then sealed and measured after 30 minutes.
The activity of a test compound was calculated as percent change in apoptosis induction as follows:
% Effect (AC50)=100−(sample-LC)/(HC-LC)*100
% Control=(sample/HC)*100
% Control min=(sample-LC)/(HC-LC)*100

SMILES | Ki [1] [nM] | AC50 ([2]; Homo sapiens, MOLP-8, 2 h) [nM] | AC50 [2] [nM]
C[C@@H]1[C@@H](C)C/C=C(\F)[C@H](C(=O)N(C)CC2CCOCC2)N2CCC[C@H]2CN2C[C@@]3(CCCc4cc(Cl)ccc43)COc3ccc(cc32)C(=O)NS1(=O)=O [Compound 22] | 0.047 | 56.7 | –
COCCN(CC1CCOCC1)C(=O)[C@H]1/C(F)=C/C[C@H](C)[C@@H](C)S(=O)(=O)NC(=O)c2ccc3c(c2)N(C[C@@H]2CCCN21)C[C@@]1(CCCc2cc(Cl)ccc21)CO3 [Compound 59] | 0.06 | 33.4 | –
COC1CN(C(=O)[C@H]2/C(F)=C/C[C@H](C)[C@@H](C)S(=O)(=O)NC(=O)c3ccc4c(c3)N(C[C@@H]3CCCN32)C[C@@]2(CCCc3cc(Cl)ccc32)CO4)C1 [Compound 25] | 0.072 | 154 | –
C[C@@H]1[C@@H](C)C/C=C(\F)[C@H](C(=O)N2C[C@H]3C[C@@H]2CO3)N2CCC[C@H]2CN2C[C@@]3(CCCc4cc(Cl)ccc43)COc3ccc(cc32)C(=O)NS1(=O)=O [Compound 9] | 0.13 | 180 | –
COCCCN(CCOC)C(=O)[C@H]1/C(F)=C/C[C@H](C)[C@@H](C)S(=O)(=O)NC(=O)c2ccc3c(c2)N(C[C@@H]2CCCN21)C[C@@]1(CCCc2cc(Cl)ccc21)CO3 [Compound 70] | 0.028 | 41.9 | –
COC1(C(F)(F)F)CN(C(=O)[C@H]2/C(F)=C/C[C@H](C)[C@@H](C)S(=O)(=O)NC(=O)c3ccc4c(c3)N(C[C@@H]3CCCN32)C[C@@]2(CCCc3cc(Cl)ccc32)CO4)C1 [Compound 42] | 0.374 | 463 | –
C[C@@H]1[C@@H](C)C/C=C(\F)[C@H](C(=O)N2C[C@@H]3OCCO[C@@H]3C2)N2CCC[C@H]2CN2C[C@@]3(CCCc4cc(Cl)ccc43)COc3ccc(cc32)C(=O)NS1(=O)=O [Compound 53] | 0.069 | 169 | –
C[C@@H]1[C@@H](C)C/C=C(\F)[C@H](C(=O)N(C)Cc2ccn(C)n2)N2CCC[C@H]2CN2C[C@@]3(CCCc4cc(Cl)ccc43)COc3ccc(cc32)C(=O)NS1(=O)=O [Compound 40] | 0.623 | 138 | –
C[C@@H]1[C@@H](C)C/C=C(\F)[C@H](C(=O)N(C)CC2CCOC2)N2CCC[C@H]2CN2C[C@@]3(CCCc4cc(Cl)ccc43)COc3ccc(cc32)C(=O)NS1(=O)=O (single isomer, unassigned) [Compound 57] | 0.051 | – | 84.4
CCS(=O)(=O)CCN(C)C(=O)[C@H]1/C(F)=C/C[C@H](C)[C@@H](C)S(=O)(=O)NC(=O)c2ccc3c(c2)N(C[C@@H]2CCCN21)C[C@@]1(CCCc2cc(Cl)ccc21)CO3 [Compound 82] | 0.025 | 557 | –
C[C@@H]1COCCN1C(=O)[C@H]1/C(F)=C/C[C@H](C)[C@@H](C)S(=O)(=O)NC(=O)c2ccc3c(c2)N(C[C@@H]2CCCN21)C[C@@]1(CCCc2cc(Cl)ccc21)CO3 (single isomer, unassigned) [Compound 11] | 0.032 | 163 | –
C[C@@H]1[C@@H](C)C/C=C(\F)[C@H](C(=O)N2CCC(CC#N)CC2)N2CCC[C@H]2CN2C[C@@]3(CCCc4cc(Cl)ccc43)COc3ccc(cc32)C(=O)NS1(=O)=O [Compound 46] | 0.091 | 329 | –
C[C@@H]1[C@@H](C)C/C=C(\F)[C@H](C(=O)N(C)CC2COCCO2)N2CCC[C@H]2CN2C[C@@]3(CCCc4cc(Cl)ccc43)COc3ccc(cc32)C(=O)NS1(=O)=O (single isomer, unassigned) [Compound 54] | 0.042 | 76.4 | –
C[C@@H]1[C@@H](C)C/C=C(\F)[C@H](C(=O)N(C)Cc2ncnn2C)N2CCC[C@H]2CN2C[C@@]3(CCCc4cc(Cl)ccc43)COc3ccc(cc32)C(=O)NS1(=O)=O [Compound 81] | 0.068 | 537 | –
C[C@@H]1[C@@H](C)C/C=C(\F)[C@H](C(=O)N(C)CCn2cccn2)N2CCC[C@H]2CN2C[C@@]3(CCCc4cc(Cl)ccc43)COc3ccc(cc32)C(=O)NS1(=O)=O [Compound 61] | 0.074 | 166 | –
C[C@@H]1[C@@H](C)C/C=C(\F)[C@H](C(=O)N(C)CCOc2cncc(F)c2)N2CCC[C@H]2CN2C[C@@]3(CCCc4cc(Cl)ccc43)COc3ccc(cc32)C(=O)NS1(=O)=O [Compound 48] | 0.155 | 112 | –
C[C@@H]1[C@@H](C)C/C=C(\F)[C@H](C(=O)N2CCN(C)C3(CC3)C2)N2CCC[C@H]2CN2C[C@@]3(CCCc4cc(Cl)ccc43)COc3ccc(cc32)C(=O)NS1(=O)=O [Compound 83] | 0.061 | 252 | –
C[C@@H]1[C@@H](C)C/C=C(\F)[C@H](C(=O)N(C)CCN2CCOCC2)N2CCC[C@H]2CN2C[C@@]3(CCCc4cc(Cl)ccc43)COc3ccc(cc32)C(=O)NS1(=O)=O [Compound 1] | 0.027 | 80.1 | –
COCCN(CCOC)CCN(C)C(=O)[C@H]1/C(F)=C/C[C@H](C)[C@@H](C)S(=O)(=O)NC(=O)c2ccc3c(c2)N(C[C@@H]2CCCN21)C[C@@]1(CCCc2cc(Cl)ccc21)CO3 [Compound 73] | 0.021 | 91.4 | –
C[C@@H]1[C@@H](C)C/C=C(\F)[C@H](C(=O)N(C)CC2CCCOC2)N2CCC[C@H]2CN2C[C@@]3(CCCc4cc(Cl)ccc43)COc3ccc(cc32)C(=O)NS1(=O)=O (single isomer, unassigned) [Compound 64] | 0.083 | 74.7 | –
COCCN(CCOC)C(=O)[C@H]1/C(F)=C/C[C@H](C)[C@@H](C)S(=O)(=O)NC(=O)c2ccc3c(c2F)N(C[C@@H]2CCCN21)C[C@@]1(CCCc2cc(Cl)ccc21)CO3 [Compound 17] | 0.032 | 234 | –
C[C@@H]1[C@@H](C)C/C=C(\F)[C@H](C(=O)N2CCO[C@@H](C)C2)N2CCC[C@H]2CN2C[C@@]3(CCCc4cc(Cl)ccc43)COc3ccc(cc32)C(=O)NS1(=O)=O [Compound 6] | – | 84.3 | –
